This passage reports IC50 results from ChEMBL document CHEMBL3621065, “Structure-activity relationship studies of SETD8 inhibitors” (Medchemcomm, 2014).

One may read the IC50 as the concentration needed to halve the response being measured.

This assay addresses T1, N-lysine methyltransferase KMT5A (Homo sapiens, UniProt Q9NQR1).
T1 sequence (Q9NQR1 whole entry): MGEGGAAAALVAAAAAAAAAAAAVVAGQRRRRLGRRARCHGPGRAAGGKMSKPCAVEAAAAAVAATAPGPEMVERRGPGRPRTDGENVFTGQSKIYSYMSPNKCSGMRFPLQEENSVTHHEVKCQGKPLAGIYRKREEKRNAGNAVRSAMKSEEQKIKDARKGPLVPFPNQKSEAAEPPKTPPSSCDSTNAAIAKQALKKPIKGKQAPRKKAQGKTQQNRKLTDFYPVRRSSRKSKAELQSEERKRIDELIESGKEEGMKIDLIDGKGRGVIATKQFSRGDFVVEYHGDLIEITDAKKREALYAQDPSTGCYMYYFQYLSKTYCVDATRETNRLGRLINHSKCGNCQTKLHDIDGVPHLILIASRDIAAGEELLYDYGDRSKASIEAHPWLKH
Description: Inhibition of human SETD8 catalytic domain expressed in Escherichia coli assessed as reduction in transfer of tritiated methyl group from [3H]SAM to biotinylated H4 (1 to 24) peptide substrate by scintillation proximity assay. A general note: Scintillation proximity formats need no separation of bound from free tracer.
As to `COc1cc2nc(N3CCCC3)nc(NCC(=O)NCCN3CCN(C)CC3)c2cc1OC`, the IC50 is over 250 µM.
The figure for `COc1cc2nc(N3CCCC3)nc(N[C@H]3CC[C@H](N)CC3)c2cc1OC` is over 250 µM.
The figure for `COc1cc2nc(N3CCCC3)nc(N[C@H]3CC[C@H](CN)CC3)c2cc1OC` is over 250 µM; for `COc1cc2nc(N3CCCC3)nc(NCC(=O)NCCN3CCCC3)c2cc1OC` it is over 250 µM; for `COc1cc2nc(N3CCCC3)nc(NCC(=O)NCCN3CCNCC3)c2cc1OC` it is over 250 µM.
The figure for `COc1cc2nc(N(C)CCN3CCCC3)nc(NCCCCCN3CCCC3)c2cc1OC` is over 250 µM; for `COc1cc2nc(N(C)CCCN3CCCC3)nc(NCCCCCN3CCCC3)c2cc1OC` it is over 250 µM; for `COc1cc2nc(N(C)CCCCN3CCCC3)nc(NCCCCCN3CCCC3)c2cc1OC` it is over 250 µM.
With `COc1cc2nc(N(C)CCCCCN3CCCC3)nc(NCCCCCN3CCCC3)c2cc1OC`, the IC50 was over 250 µM.
The figure for `COc1cc2nc(N(C)c3ccccc3)nc(NCCCCCN3CCCC3)c2cc1OC` is over 250 µM; for `COc1ccc(N(C)c2nc(NCCCCCN3CCCC3)c3cc(OC)c(OC)cc3n2)cc1` it is over 250 µM; for `COc1cc2nc(N(C)c3ccc([N+](=O)[O-])cc3)nc(NCCCCCN3CCCC3)c2cc1OC` it is over 250 µM.
The figure for `COc1cc2nc(Nc3ccccc3)nc(NCCCCCN3CCCC3)c2cc1OC` is over 250 µM; for `COc1ccc(Nc2nc(NCCCCCN3CCCC3)c3cc(OC)c(OC)cc3n2)cc1` it is over 250 µM; for `COc1cc2nc(Nc3ccc(C(F)(F)F)cc3)nc(NCCCCCN3CCCC3)c2cc1OC` it is over 250 µM.
The same measure for `COc1cc2nc(Nc3ccc([N+](=O)[O-])cc3)nc(NCCCCCN3CCCC3)c2cc1OC`: over 250 µM; for `COc1cc2nc(-c3ccccc3)nc(NCCCCCN3CCCC3)c2cc1OC`: over 250 µM.
For `COc1ccc(-c2nc(NCCCCCN3CCCC3)c3cc(OC)c(OC)cc3n2)cc1`, the IC50 is over 250 µM.
The figure for `COc1cc2nc(-c3ccc(C(F)(F)F)cc3)nc(NCCCCCN3CCCC3)c2cc1OC` is over 250 µM.
The figure for `COc1cc2nc(-c3ccc(F)cc3)nc(NCCCCCN3CCCC3)c2cc1OC` is over 250 µM.
With `c1ccc2c(NCCCCCN3CCCC3)nc(N3CCCC3)nc2c1`, the IC50 was over 250 µM.
